According to PubChem BioAssay AID248 (DTP/NCI, 2004):
Several values for one entry are separate records, joined by “and”; a condition that tells them apart may be missing. Equal entries are not always repeated. Toxic doses and inconclusive results are not listed. No stated cut-off is given here; in the data, active means T/C of 150% or more; inactive means T/C below 125%.

System: L1210 leukemia ip in BDF1 mice, survival T/C
Experiment: NCI In Vivo Anticancer Drug Screen. Data for tumor model L1210 Leukemia (intraperitoneal) in B6D2F1 (BDF1) mice
Settings: higher = longer survival
Summary of the method: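 Each compound was tested against a transplantable tumor grown in mice. The endpoint was survival, with treated animals benchmarked against vehicle controls as a simple ratio.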

[1] = endpoint: mean survival time, dose: 100.0 mg/kg/injection, schedule: Q01DX009 (ip), vehicle: Klucel (hydroxypropylcellulose) (HPC)
[2] = endpoint: mean survival time, dose: 100.0 mg/kg/injection, schedule: Q04DX003 (ip), vehicle: saline with Tween-80
[3] = endpoint: mean survival time, dose: 100.0 mg/kg/injection, schedule: Q04DX003 (ip), vehicle: saline
[4] = endpoint: mean survival time, dose: 200.0 mg/kg/injection, schedule: Q04DX003 (ip), vehicle: saline
[5] = endpoint: mean survival time, dose: 400.0 mg/kg/injection, schedule: Q04DX003 (ip), vehicle: saline
[6] = endpoint: mean survival time, dose: 100.0 mg/kg/injection, schedule: Q01DX001 (ip), vehicle: carboxymethylcellulose (CMC)
[7] = endpoint: mean survival time, dose: 200.0 mg/kg/injection, schedule: Q01DX001 (ip), vehicle: carboxymethylcellulose (CMC)
[8] = endpoint: mean survival time, dose: 400.0 mg/kg/injection, schedule: Q01DX001 (ip), vehicle: carboxymethylcellulose (CMC)
[9] = endpoint: mean survival time, dose: 400.0 mg/kg/injection, schedule: Q04DX003 (ip), vehicle: saline with Tween-80
[10] = endpoint: mean survival time, dose: 200.0 mg/kg/injection, schedule: Q01DX009 (ip), vehicle: saline with Tween-80
[11] = endpoint: mean survival time, dose: 400.0 mg/kg/injection, schedule: Q01DX009 (ip), vehicle: saline with Tween-80
[12] = endpoint: mean survival time, dose: 200.0 mg/kg/injection, schedule: Q04DX003 (ip), vehicle: saline with Tween-80

Measured: T/C

O=NN(CCCl)C(=O)Nc1ncc([N+](=O)[O-])s1
inactive: endpoint: mean survival time, dose: 8.0 mg/kg/injection, schedule: Q01DX001 (ip), vehicle: other 105 % of control | endpoint: mean survival time, dose: 16.0 mg/kg/injection, schedule: Q01DX001 (ip), vehicle: other 105 % of control | endpoint: mean survival time, dose: 31.0 mg/kg/injection, schedule: Q01DX001 (ip), vehicle: other 110 % of control | endpoint: mean survival time, dose: 62.0 mg/kg/injection, schedule: Q01DX001 (ip), vehicle: other 109 % of control | endpoint: mean survival time, dose: 125.0 mg/kg/injection, schedule: Q01DX001 (ip), vehicle: other 116 % of control

CCCCN(C)N=Nc1ccc(CCC(=O)OCC)cc1
inactive: endpoint: mean survival time, dose: 72.5 mg/kg/injection, schedule: Q01DX009 (ip), vehicle: saline with Tween-80 121 % of control | endpoint: mean survival time, dose: 177.0 mg/kg/injection, schedule: Q01DX009 (ip), vehicle: other 117 % of control | endpoint: mean survival time, dose: 187.0 mg/kg/injection, schedule: Q01DX Z (ip), vehicle: saline 117 % of control | endpoint: mean survival time, dose: 207.0 mg/kg/injection, schedule: Q01DX001 (ip), vehicle: saline with Tween-80 111 % of control | endpoint: mean survival time, dose: 414.5 mg/kg/injection, schedule: Q01DX001 (ip), vehicle: saline with Tween-80 119 % of control | endpoint: median survival time, dose: 200.0 mg/kg/injection, schedule: Q04DX003 (ip), vehicle: Klucel (hydroxypropylcellulose) (HPC) 111 % of control
active: endpoint: mean survival time, dose: 266.0 mg/kg/injection, schedule: Q01DX007 (ip), vehicle: saline 160 % of control | endpoint: mean survival time, dose: 290.0 mg/kg/injection, schedule: Q01DX009 (ip), vehicle: saline with Tween-80 171 % of control | endpoint: mean survival time, dose: 400.0 mg/kg/injection, schedule: Q01DX007 (ip), vehicle: saline 171 % of control | endpoint: mean survival time, dose: 400.0 mg/kg/injection, schedule: Q01DX009 (ip), vehicle: other 162 % of control | endpoint: mean survival time, dose: 600.0 mg/kg/injection, schedule: Q01DX009 (ip), vehicle: other 179 % of control | endpoint: median survival time, dose: 800.0 mg/kg/injection, schedule: Q01DX009 (ip), vehicle: saline 187 % of control

CCCCCCCCCCCCCCCCN(C(=S)c1ccccc1)c1ccccc1
inactive: [1] 89 % of control | endpoint: mean survival time, dose: 100.0 mg/kg/injection, schedule: Q04DX003 (ip), vehicle: Klucel (hydroxypropylcellulose) (HPC) 104 % of control | endpoint: mean survival time, dose: 200.0 mg/kg/injection, schedule: Q01DX009 (ip), vehicle: Klucel (hydroxypropylcellulose) (HPC) 90 % of control | endpoint: mean survival time, dose: 200.0 mg/kg/injection, schedule: Q04DX003 (ip), vehicle: Klucel (hydroxypropylcellulose) (HPC) 94 % of control | endpoint: mean survival time, dose: 400.0 mg/kg/injection, schedule: Q01DX009 (ip), vehicle: Klucel (hydroxypropylcellulose) (HPC) 87 % of control | endpoint: mean survival time, dose: 400.0 mg/kg/injection, schedule: Q04DX003 (ip), vehicle: Klucel (hydroxypropylcellulose) (HPC) 96 % of control

O=C(Nc1cccc(F)c1)Nc1nccs1
inactive: endpoint: mean survival time, dose: 25.0 mg/kg/injection, schedule: Q01DX009 (ip), vehicle: Klucel (hydroxypropylcellulose) (HPC) 89 % of control | endpoint: mean survival time, dose: 50.0 mg/kg/injection, schedule: Q01DX009 (ip), vehicle: Klucel (hydroxypropylcellulose) (HPC) 99 % of control | [1] 95 % of control and 97 % of control

CC(C)CC(N)C(N)=O (stereo not given)
inactive: endpoint: mean survival time, dose: 12.5 mg/kg/injection, schedule: Q04DX002 (ip), vehicle: saline 107 % of control | endpoint: mean survival time, dose: 25.0 mg/kg/injection, schedule: Q04DX002 (ip), vehicle: saline 100 % of control | endpoint: mean survival time, dose: 50.0 mg/kg/injection, schedule: Q04DX002 (ip), vehicle: saline 107 % of control

COC(=O)/C=C(\C)Nc1ccc(NC(C)=O)cc1
inactive: endpoint: mean survival time, dose: 25.0 mg/kg/injection, schedule: Q01DX009 (ip), vehicle: acetone 101 % of control | endpoint: mean survival time, dose: 50.0 mg/kg/injection, schedule: Q01DX009 (ip), vehicle: acetone 101 % of control | endpoint: mean survival time, dose: 100.0 mg/kg/injection, schedule: Q01DX009 (ip), vehicle: acetone 94 % of control | endpoint: mean survival time, dose: 100.0 mg/kg/injection, schedule: Q04DX003 (ip), vehicle: acetone 94 % of control | endpoint: mean survival time, dose: 200.0 mg/kg/injection, schedule: Q04DX003 (ip), vehicle: acetone 96 % of control

CCCC(C(=O)OCC)C1=NC(C)(C)CC(C)O1 (stereo not given)
inactive: endpoint: mean survival time, dose: 100.0 mg/kg/injection, schedule: Q01DX009 (ip), vehicle: alcohol 102 % of control | endpoint: mean survival time, dose: 200.0 mg/kg/injection, schedule: Q01DX009 (ip), vehicle: alcohol 105 % of control | endpoint: mean survival time, dose: 400.0 mg/kg/injection, schedule: Q01DX009 (ip), vehicle: alcohol 105 % of control

CC(=O)Oc1cc2c(OC(C)=O)c(-c3c(C)cc4c(C(C)C)c(OC(C)=O)c(OC(C)=O)cc4c3OC(C)=O)c(C)cc2c(C(C)C)c1OC(C)=O
inactive: [2] 86 % of control

CN1CCCCC(c2ccccc2)(c2ccccc2)C1=N
inactive: endpoint: mean survival time, dose: 37.5 mg/kg/injection, schedule: Q01DX001 (ip), vehicle: saline 100 % of control

CCOC(=O)CSCc1cc(=O)[nH]c(=O)[nH]1
inactive: [3] 96 % of control | [4] 98 % of control | [5] 102 % of control

O=C1c2cc(Br)ccc2-c2c(I)cc(Br)cc21
inactive: endpoint: mean survival time, dose: 50.0 mg/kg/injection, schedule: Q01DX001 (ip), vehicle: carboxymethylcellulose (CMC) 103 % of control | [6] 100 % of control | [7] 100 % of control | [8] 100 % of control

O=C1c2ccccc2CC/C(=N\O)C1c1ccccc1 (stereo not given)
inactive: endpoint: mean survival time, dose: 100.0 mg/kg/injection, schedule: Q01DX001 (ip), vehicle: saline with Tween-80 107 % of control | endpoint: mean survival time, dose: 200.0 mg/kg/injection, schedule: Q01DX001 (ip), vehicle: saline with Tween-80 98 % of control | endpoint: mean survival time, dose: 400.0 mg/kg/injection, schedule: Q01DX001 (ip), vehicle: saline with Tween-80 104 % of control

NC(=O)NN=C1CCC(CC2CCCCC2)CC1 (stereo not given)
inactive: endpoint: mean survival time, dose: 25.0 mg/kg/injection, schedule: Q04DX003 (ip), vehicle: saline with Tween-80 102 % of control | endpoint: mean survival time, dose: 50.0 mg/kg/injection, schedule: Q04DX003 (ip), vehicle: saline with Tween-80 102 % of control

NC(=O)c1ccc(OC(F)(F)C(F)Cl)cc1OC(F)(F)C(F)Cl (stereo not given)
inactive: [2] 98 % of control | [9] 102 % of control

CN(C)C=NCCOCc1ccccc1
inactive: [3] 98 % of control | [4] 93 % of control

O=c1[nH]c2cnn(-c3ccccc3)c2c(=O)n1O
inactive: endpoint: mean survival time, dose: 50.0 mg/kg/injection, schedule: Q01DX001 (ip), vehicle: saline 97 % of control | endpoint: mean survival time, dose: 100.0 mg/kg/injection, schedule: Q01DX001 (ip), vehicle: saline 97 % of control | endpoint: mean survival time, dose: 200.0 mg/kg/injection, schedule: Q01DX001 (ip), vehicle: saline 97 % of control | endpoint: mean survival time, dose: 400.0 mg/kg/injection, schedule: Q01DX001 (ip), vehicle: saline 105 % of control

CC(C)(C)C(CCC(=O)O)CC(=O)O (stereo not given)
inactive: [10] 90 % of control | [11] 89 % of control

O=C(N/N=C/c1cccc([N+](=O)[O-])c1)C(O)C(O)C(O)C(O)CO (stereo not given)
inactive: [6] 97 % of control | endpoint: mean survival time, dose: 100.0 mg/kg/injection, schedule: Q01DX009 (ip), vehicle: carboxymethylcellulose (CMC) 102 % of control | endpoint: mean survival time, dose: 100.0 mg/kg/injection, schedule: Q04DX002 (ip), vehicle: carboxymethylcellulose (CMC) 100 % of control | endpoint: mean survival time, dose: 100.0 mg/kg/injection, schedule: Q04DX003 (ip), vehicle: carboxymethylcellulose (CMC) 94 % of control | [7] 104 % of control | endpoint: mean survival time, dose: 200.0 mg/kg/injection, schedule: Q01DX009 (ip), vehicle: carboxymethylcellulose (CMC) 104 % of control and 91 % of control | endpoint: mean survival time, dose: 200.0 mg/kg/injection, schedule: Q04DX002 (ip), vehicle: carboxymethylcellulose (CMC) 96 % of control and 106 % of control | endpoint: mean survival time, dose: 200.0 mg/kg/injection, schedule: Q04DX003 (ip), vehicle: carboxymethylcellulose (CMC) 100 % of control | [8] 95 % of control | endpoint: mean survival time, dose: 400.0 mg/kg/injection, schedule: Q01DX009 (ip), vehicle: carboxymethylcellulose (CMC) 94 % of control | endpoint: mean survival time, dose: 400.0 mg/kg/injection, schedule: Q04DX002 (ip), vehicle: carboxymethylcellulose (CMC) 103 % of control and 91 % of control | endpoint: mean survival time, dose: 400.0 mg/kg/injection, schedule: Q04DX003 (ip), vehicle: carboxymethylcellulose (CMC) 94 % of control

Cc1c(Cl)cccc1NC(=O)c1ccc([N+](=O)[O-])cc1
inactive: endpoint: mean survival time, dose: 100.0 mg/kg/injection, schedule: Q01DX009 (ip), vehicle: saline with Tween-80 91 % of control | [10] 89 % of control | [11] 89 % of control

C/C(=C(/CCO)SCCC(=O)c1ccc(Cl)cc1)N(C=O)Cc1cnc(C)nc1N
inactive: [3] 97 % of control | [4] 93 % of control | [5] 97 % of control

CC1=C2C3OC(=O)C(C)C3C=CC2(C)C(=O)CC1 (stereo not given)
inactive: [2] 87 % of control | [12] 89 % of control | [9] 89 % of control

O=C(O)c1cc(-c2ccc(Cl)cc2)nc2c(-c3ccccc3)cccc12
inactive: [2] 95 % of control | [12] 95 % of control | [9] 90 % of control
